These results are taken from publication PMC12072202, “Identification of Novel HPK1 Hit Inhibitors: From In Silico Design to In Vitro Validation” (International Journal of Molecular Sciences, 2025).

This assay concerns the target T1, human recombinant active HPK1 (Homo sapiens, UniProt Q92918).
T1 construct: purchased Reaction Biology Corp., Malvern, PA, USA (contract assay)
Kind of assay: radiometric HotSpot kinase assay (33P-ATP, myelin basic protein substrate). Conditions: for inhibition at 25 µM: 25 µM compound; for inhibition at 25 µM / inhibition at 50 µM: duplicate; for inhibition at 50 µM: 50 µM compound. The assay is classed as biochemical. How it is done: The in vitro inhibitory activity of the fifteen purchased compounds against recombinant human HPK1 was evaluated using a radiometric HotSpot^TM kinase assay. The results were expressed as a percentage of the remaining kinase activity relative to its activity in negative control reactions (DMSO). […] Six hits (ISR-03, ISR-04, ISR-05, ISR-10, ISR-13, and ISR-11) were selected for IC50 value determination.
The selected compounds were purchased from ASINEX (ASINEX, Amsterdam, The Netherlands) and OTAVA lead-like (OTAVA Ltd., Vaughan, ON, Canada) via local vendors. […] In brief, this assay was performed by preparing the kinase substrate (myelin basic protein) with a concentration of 20 µM in freshly prepared base reaction buffer (20.0 mM Hepes (pH 7.5), 10.0 mM MgCl2, 1.0 mM EGTA, 0.01% Brij35, 0.02 mg/mL BSA, 0.1 mM Na3VO4, 2.0 mM DTT, and 1% DMSO). Then, the kinase enzyme was delivered into the substrate solution by gently mixing, followed by adding the tested compounds dissolved in 100% DMSO using the Echo550 liquid handler and incubated for 20 min at room temperature. Finally, the reaction was initiated by the addition of ^33P-γ-ATP with a concentration of 10.0 µM and incubated for 2 h at room temperature. The percentage of kinase activity was detected using the P81 filter-binding method. For IC50 determination, the compounds’ inhibitory activity was tested at 10 concentrations (100 µM, 33.3 µM, 11.10 µM, 3.70 µM, 1.23 µM, 0.412 µM, 0.137 µM, 45.70 nM, 15.20 nM, and 5.08 nM) in one independent experiment in duplicate mode and prepared using 3-fold serial dilutions. The percentage of remaining kinase activity in tested samples was determined first, and then Prism GraphPad software version 10.2.0 (nonlinear regression/variable slope) was used to obtain the IC50 values and curve fits.

The mark [1] stands for this setting: 10 concentrations, 3-fold dilution from 100 µM, 10 µM ATP, mean ± SD where given, read-out: IC50.
Where [2] appears, read: Prism fit table of single inhibition curve (A/B replicate), Figure 3, unit inferred, read-out: EC50 (the source's name).

The term inhibition denotes the drop in the measured response relative to a control, in per cent.

Several values for one entry are separate records, joined by “and”; a condition that tells them apart may be missing. Equal entries are not always repeated. Where two headings read alike, the source gives them in different places.

T1 sequence (Q92918 whole entry): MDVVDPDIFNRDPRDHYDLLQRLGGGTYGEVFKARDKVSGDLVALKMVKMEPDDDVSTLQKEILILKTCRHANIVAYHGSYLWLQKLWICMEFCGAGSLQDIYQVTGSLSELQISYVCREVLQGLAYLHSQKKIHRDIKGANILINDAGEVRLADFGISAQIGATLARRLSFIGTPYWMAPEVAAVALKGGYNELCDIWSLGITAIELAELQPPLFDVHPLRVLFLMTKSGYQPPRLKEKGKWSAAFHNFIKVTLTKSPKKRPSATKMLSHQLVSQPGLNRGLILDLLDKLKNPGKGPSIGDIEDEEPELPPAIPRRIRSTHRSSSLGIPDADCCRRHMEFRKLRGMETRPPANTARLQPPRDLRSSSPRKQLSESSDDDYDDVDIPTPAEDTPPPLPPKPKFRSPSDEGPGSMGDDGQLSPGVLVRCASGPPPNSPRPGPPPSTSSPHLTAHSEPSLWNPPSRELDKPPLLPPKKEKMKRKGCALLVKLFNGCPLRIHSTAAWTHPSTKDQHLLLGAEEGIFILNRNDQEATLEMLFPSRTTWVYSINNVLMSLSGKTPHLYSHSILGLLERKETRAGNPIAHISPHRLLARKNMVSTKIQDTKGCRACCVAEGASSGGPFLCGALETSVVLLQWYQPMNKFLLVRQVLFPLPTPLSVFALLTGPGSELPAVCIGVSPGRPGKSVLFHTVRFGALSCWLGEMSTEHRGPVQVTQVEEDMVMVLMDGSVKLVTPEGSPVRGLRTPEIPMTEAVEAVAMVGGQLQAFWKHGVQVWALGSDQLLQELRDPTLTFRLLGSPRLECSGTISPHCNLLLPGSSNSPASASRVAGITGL

With `COc1ccc2[nH]c(=O)c(CNc3ccccc3NC(C)=O)cc2c1` [ISR-03], for the setting “10 µM ATP”, the inhibition at 25 µM was 26.6% and the inhibition at 50 µM worked out at 52.4%. The IC50 under setting [1] turned out to be 43.9 µM. The IC50 under setting [2] was 44 µM and 43.8 µM.

For the compound `CCCNC(=O)c1cc2c(=O)n3cccc(C)c3nc2s1` [ISR-04], for the setting “10 µM ATP”, the inhibition at 25 µM was determined as 2.44% and the inhibition at 50 µM was determined as 10.1%. In addition, the IC50 under setting [1] was > 100 µM.

For `Cc1cccn2c(=O)c3cc(C(=O)Nc4ccccc4C(N)=O)sc3nc12` [ISR-05], for the setting “10 µM ATP”, the inhibition at 25 µM was 0%. The inhibition at 50 µM (10 µM ATP) is 13.9%. Further, the IC50 under setting [1] stood at 24.2 µM; the IC50 under setting [2] was 20.6 µM and 27.7 µM.
